Experimental data taken from US6610502B1, “Compound 2-amino-3-[2-(α-mannopyranosyl)indol-3-yl]propionic acid, process for preparing the same, and method for inspecting function of living body with the novel compound” (Kyowa Medex Co., Ltd., priority 1997, dated 2003).
“And” between values parts separate entries of the source, which are not always exact repeats. Identical values can stand only once.

How the values were obtained:
Assay type in all cases: in vivo, human
[1] = Quantitation of the compound in cerebrospinal fluid by high performance liquid chromatography (Example 4)
Protocol: (§1) Standard solution of 2-amino-3-[2-(α-mannopyranosyl)indole-3-yl]propionic acid obtained in Example 1 above was prepared. Next, 350 μl of the standard solution was added to 500 μl of 0.1N hydrochloric acid containing 1% vitamin C, mixed with 50 μl of 40 μM N-methyl serotonin as an internal standard then 100 μl of 60% perchloric acid, and centrifuged at 3000 rpm at 4° C. The supernatant was filtered through a 0.22 μm filter to obtain a filtrate.
(§2) The filtrate was subjected to high performance liquid chromatography under the following conditions:
(§3) Sera and cerebrospinal fluids from healthy persons and patients with central nervous disease were quantitated for the compound of the present invention. Both sera and cerebrospinal fluids were collected from 22 healthy persons, one patient with spinocerebellar ataxia and one patient with metastatic brain tumor, and quantitated for the compound of the present invention in the sera and the cerebrospinal fluids in the same manner as that of Example 2 except that sera or cerebrospinal fluids were used instead of the standard solution. […] The result of quantitation of the compound in cerebrospinal fluids is shown in FIG. 3 in which ●, □ and Δ show the healthy persons, the patient with spinocerebellar ataxia, and the patient with metastatic brain tumor, respectively. As shown in this figure, the level of the compound in cerebrospinal fluids from healthy persons was determined to be 130.4 ng/ml (SD 29.1). The level of the compound in cerebrospinal fluid from the patient with spinocerebellar ataxia was determined to be 399.4 ng/ml. The level of the compound in cerebrospinal fluid from the patient with metastatic brain tumor was determined to be 822.6 ng/ml.

[2] = Quantitation of the compound in amniotic fluid by high performance liquid chromatography (Example 5)
Protocol: as §1, §2
Amniotic fluids from pregnant healthy persons and pregnant patients with uremic syndrome staying in hospital were quantitated for the compound of the present invention. Amniotic fluids were collected from 21 healthy persons (21-41 weeks old) and 9 pregnant patients with uremic syndrome (24-49 weeks old), and assayed for the compound of the present invention. The quantitation was performed in the same manner as that of Example 2 except that amniotic fluids were used instead of the standard solution. The results are shown in FIG. 4 in which Δ and ● show the healthy persons and the pregnant patients with uremic syndrome, respectively. As shown in this figure, 353.0 ng/ml (SD 120.1) was obtained for the healthy persons while […] for the pregnant patients with uremic syndrome.

[3] = Quantitation of the compound in serum by high performance liquid chromatography (Examples 3, 4); details: for level in serum: healthy persons, newborns to 90-year-old
Protocol: as §1, §2
Column: Finepak SILC18-T5 (4 mm×25 cm, JASCO Corporation)
Development solvent: Mixed solvent of acetonitrile and buffer (70 mM citric acid: 60 mM disodium phosphate=1;1, v/v, pH3.5)
Detection: Fluorescence, excited at 302 nm, determined at 350 nm
Sera from healthy persons and patients with renal disease were quantitated for the compound of the present invention. First, bloods were collected from the subjects and left to stand at room temperature for 30 minutes for coagulation. Next, the sera were collected by centrifugation at 3000 rpm for 10 minutes and stored at −80° C. until use. Sera from healthy persons (males and females, newborns to 90-year-old persons) were quantitated for the compound of the present invention in the same manner as that of Example 2 except that sera were used instead of the standard solution. […] No difference was detected between ages or between sexes.
Next, sera from patients with renal disease (17 males, average age of 53.9; 13 females, average age of 46.4) were quantitated for the compound of the present invention. […] As shown in this figure, the average value of 856 ng/ml (SD 247) was obtained for samples from male patients while 854 ng/ml (SD 305) for samples from female patients.
as §3

[4] = GFR assay: the present compound in urine and sera by enzyme immunoassay, clearance (Example 8)
Protocol: Enzyme immunoassay was performed using the antibody prepared in Example 6. First, 50 μl of 2-amino-3-[2-(α-D-mannopyranosyl)indole-3-yl]propionic acid-BSA conjugate solution (20 μg/ml 0.1M carbonate buffer, pH9.5) was dispensed into a 96-well microtiter plate (NUNC. Corp.) and left to stand at 4° C. overnight. After washing the plate three times with PBS, 250 μl of 1% BSA/PBS solution was dispensed into the plate and left to stand at room temperature for 1 hour. Then, the plate was washed three times with PBS to be used as a reaction plate. Next, 50 μl of a test sample diluted with 0.1M phosphate buffer (pH 7.4) supplemented with varied concentrations of 2-amino-3-[2-(α-D-mannopyranosyl)indole-3-yl]propionic acid/0.1%BSA or 0.1M phosphate buffer supplemented with 0.1% BSA (pH7.4) was dispensed into the reaction plate into which 50 μl of the monoclonal antibody prepared in Example 6 (10 ng/ml, 0.1M phosphate buffer solution supplemented with 0.1% BSA, pH7.4) was added while stirring. The mixture was allowed to react at room temperature for 3 hours. Then, after the reaction was completed, the plate was washed five times with PBS containing 0.05% Tween 20, and then 50 μl of POD labeled-anti-mouse immunoglobulins-rabbit IgG (DAKO) was added to the plate for reaction at room temperature for 1 hour. After the reaction, the plate was washed five times with PBS containing 0.05% Tween 20, added with 50 μl of MCDP/50 mM citrate buffer solution (pH5.0), and the mixture was allowed to react at room temperature for 30 minutes. Finally, 50 μl of a reaction stopper (ethyl diethyldithiocarbamate) was added to the plate, and absorbance was then determined at 660 nm by a microplate reader. The calibration curve is shown in FIG. 5 in which the concentration of 2-amino-3-[2-(α-D-mannopyranosyl)indole-3-yl]propionic acid was indicated as a concentration of single compound.
Eighteen patients with non-renal disease were assayed for the levels of 2-amino-3-[2-(α-mannopyranosyl)indole-3-yl]propionic acid in their urine and sera as described in Example 7. Urine samples stored for 24 hours were used. Volumes of those samples were determined and then partially stored at −80° C. until assay. Upon use, the frozen urine samples were thawed at 37° C. and kept warm. Subsequently, after sufficient stirring and mixing, the samples were centrifuged at 3000 rpm for 10 minutes to remove impurities. The resultant supernatants were used as samples. Serum samples were collected from the patients' blood, left to stand at room temperature for 30 minutes for coagulation, and centrifuged to collect sera which were stored at −80° C. until use.
Clearance View=(level in urine×urine volume)/(24×60×serum level)

Structure (SMILES): NC(Cc1c([C@H]2O[C@H](CO)[C@@H](O)[C@H](O)[C@@H]2O)[nH]c2ccccc12)C(=O)O (stereo partly drawn) [the present compound, 2-amino-3-[2-(α-mannopyranosyl)indole-3-yl]propionic acid]
- range of levels in cerebrospinal fluids from 99% of subjects ([1]; healthy persons (n=22)): 72 to 188 ng/mL
- level in cerebrospinal fluids ([1]; healthy persons (n=22), SD 29.1): 130.4 ng/mL
- level in cerebrospinal fluid ([1]; one patient with metastatic brain tumor): 822.6 ng/mL
- level in cerebrospinal fluid ([1]; one patient with spinocerebellar ataxia): 399.4 ng/mL
- levels in cerebrospinal fluids ([1]; patients with spinocerebellar ataxia or metastatic brain tumor): ≥ 400 ng/mL
- range of levels in amniotic fluids from 99% of subjects ([2]; healthy persons (n=21)): 113 to 593 ng/mL
- level in amniotic fluids ([2]; pregnant healthy persons (n=21), SD 120.1): 353.0 ng/mL
- range of levels in amniotic fluids from 99% of subjects ([2]; pregnant patients with uremic syndrome (n=9)): 675 to 2147 ng/mL
- level in amniotic fluids ([2]; pregnant patients with uremic syndrome (n=9), SD 367.9): 410.7 ng/mL
- level in serum, average value ([3]; female patients with renal disease (13 females), SD 305): 854 ng/mL
- range of levels in sera from 99% of subjects ([3]; healthy persons (n=50)): 52 to 99 ng/mL
- level in serum ([3]; females, SD 12.6): 74.5 ng/mL
- level in serum ([3]; males, SD 10.3): 76.3 ng/mL
- level in serum, average value ([3]; male patients with renal disease (17 males), SD 247): 856 ng/mL
- range of levels in sera from 99% of subjects ([3]; patients with renal dysfunction (n=30)): 307 to 1403 ng/mL
- level in sera ([3]; sera of Example 4 subjects, SD 13.8): 69.9 ng/mL
- clearance (ml/min) the present compound ([4]; Average of 18 subjects): 68.40 mL/min
- the present compound in serum ([4]; Average of 18 subjects): 0.24 nmol/mL
- the present compound in urine ([4]; Average of 18 subjects): 14.87 nmol/mL
- the present compound in serum ([4]; individual subjects 1-18, patients with non-renal disease): 0.240 nmol/ml (2×) and 0.193 nmol/ml (3×) and 0.166 nmol/ml and 0.280 nmol/ml and 0.200 nmol/ml and 0.319 nmol/ml (3×) and 0.279 nmol/ml (2×) and 0.186 nmol/ml and 0.309 nmol/ml and 0.213 nmol/ml and 0.226 nmol/ml and 0.159 nmol/ml
- the present compound in urine ([4]; individual subjects 1-18, urine stored for 24 hours): 11.677 nmol/mL and 7.195 nmol/mL and 4.242 nmol/mL and 14.862 nmol/mL and 19.188 nmol/mL and 7.595 nmol/mL and 10.649 nmol/mL and 14.349 nmol/mL and 13.645 nmol/mL and 27.103 nmol/mL and 16.348 nmol/mL and 12.726 nmol/mL and 11.931 nmol/mL and 26.935 nmol/mL and 15.040 nmol/mL and 12.989 nmol/mL and 33.653 nmol/mL and 7.573 nmol/mL
- clearance (ml/min) the present compound ([4]; individual subjects 1-18, (level in urine×urine volume)/(24×60×serum level)): 64.2 mL/min and 54.2 mL/min and 58.1 mL/min and 80.8 mL/min and 64.3 mL/min and 53.0 mL/min and 72.3 mL/min and 60.7 mL/min and 91.7 mL/min and 56.1 mL/min and 89.1 mL/min and 61.9 mL/min and 89.2 mL/min and 77.6 mL/min and 67.7 mL/min and 65.3 mL/min and 52.8 mL/min
